Results taken from patent EP4745138A1, “THIO-GLUTARIMIDO ISOINDOLINONE DERIVATIVE, BIFUNCTIONAL PROTEIN DEGRADER CONTAINING SAME, AND USES THEREOF” (Gluetacs Therapeutics (Shanghai) Co., Ltd., priority 2023, dated 2025).
Like-named read-outs stand apart in the source and are kept apart here.

How the values were obtained:
Jurkat = test: Tumor cell proliferation inhibition (CellTiter-Meiluncell Luminescent Cell Viability Assay); details: Homo sapiens, 96 hours, Table I-5, designed based on the IRAK4 inhibitors, read-out: Inhibitory activity (IC50, nM) Jurkat
Experimental: The tumor cells used herein were cultured in a cell culture medium listed in table 3 at 37°C in an incubator with 5% CO2. Prior to experimentation, all cell lines used were correctly identified by STR profiling, and tested negative for mycoplasma contamination using a mycoplasma detection kit through routine screenings. Table 3. Tumor cells and cell culture medium used in the present disclosure
The IC50 values of the compounds of the present disclosure (including the compounds in Table 1, Table 2, and Examples) were determined using the CellTiter-Meiluncell Luminescent Cell Viability Assay Kit from Dalian Meilun Biotech Co., Ltd. The detailed procedure is as follows: Tumor cells were seeded in 96-well cell culture plates at the densities specified in Table 4. On the following day, the test compounds of the present disclosure were subjected to serial dilution. […] Subsequently, 0.5 µL of the test compound dilution was transferred into the 96-well plate containing the cells, with each well containing 100 µL of cell culture medium. […] Into the 96-well plate, the diluted test compounds and corresponding detection reagents were added, resulting in final test compound concentrations of 500 nM and 10 nM, respectively. The experimental procedure is described below using the diluted 2 µM test compound as an example.
0.5 µL of the aforementioned diluted compound of the present disclosure (including the compounds in Table 1, Table 2, and Examples) was added to the seeded cells in 100 µL of medium, yielding a final test compound concentration of 10 nM. After the cells were treated with the compounds of the present disclosure for a specified period, the cell viability assay reagent was added to the culture medium according to the kit's instructions to determine cell viability. […] All controls were treated using the same procedure as the compounds of the present disclosure. […] Seeding protocol and treatment time for tumor cells

MM.1S = test: as above; type: cell-based; details: Homo sapiens, MM1.S, MM.1S, 96 hours; for inhibition at 0.01 µM: 10 nM, read-out: Inhibition Rate at 10 nM (%); for inhibition at 0.5 µM: 500 nM, read-out: Inhibition Rate at 500 nM (%)
Method in brief: (§1)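 Following overnight seeding, tumor cells received serial compound dilutions to final levels that included 10 nM and 500 nM. Viability was assessed by luminescence at the end of the specified exposure time. Cultures were kept at 37°C with 5% CO2.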

[1] = biological target: T1, human Cereblon WT GST-tagged protein (Homo sapiens, UniProt Q96SW2); test: CRBN-binding affinity, HTRF (CEREBLON BINDING kit); details: for inhibition at 0.5 µM: read-out: Inhibition Rate at 0.5 µM (%); for inhibition at 2 µM: read-out: Inhibition Rate at 2 µM (%)
T1 construct: purchased CISBIO 64BDCRBNPEH
Method in brief: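 Competitive HTRF binding: compounds diluted in diluent #9 incubated with GST-tagged wild-type human Cereblon, thalidomide-Red tracer and anti-GST Eu antibody. Final compound concentrations 2 µM and 0.5 µM.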

BRG1 = biological target: T2, BRG1 (Homo sapiens, UniProt P51532); test: Western blot, target protein degradation in Molt-4 Cell; type: cell-based; details: substrate protein remaining %, treated at 500 nM and 50 nM, 24 hours
T2 construct: endogenous in cells; host or cells: Molt-4
Experimental: (§2) Conventional Western blot assay was performed to evaluate the effects of the compounds of the present disclosure on the expression of target proteins in cells.
(§3) (1) Cell Seeding and Protein Harvesting: The selected cells were processed according to the cell seeding procedure and protein harvesting procedure in Table II-2. Table II-2 Cell Seeding and Protein Harvesting Procedures
(§4) (2) To the collected supernatant, 5X SDS sample loading buffer was added, followed by denaturation at 95°C for 5 minutes. The denatured samples were then separated by SDS-PAGE electrophoresis on a polyacrylamide gel. Proteins were transferred to a nitrocellulose membrane (0.45 µm NC membrane), blocked with blocking buffer at room temperature for 1 hour, and subjected to antibody incubation and development procedures according to the antibody manufacturer's instructions (Cell Signaling Technology).
(§5) Half-Maximal Degradation Concentration value (the drug concentration required for degrading proteins by 50%, abbreviated as DC50) reads method: comparing the grayscale values of Western blot bands from drug-treated samples with those from blank DMSO-treated controls, and identifying the drug concentration range at which the grayscale value is half that of the DMSO-treated control bands.
(§6) DC50 values can be calculated using ImageJ software to measure grayscale values of Western blot bands from drug-treated samples. […]

BRM = biological target: T3, BRM (Homo sapiens, UniProt P51531); test: as above; type: cell-based; details: substrate protein remaining %, treated at 500 nM and 50 nM, 24 hours
T3 construct: endogenous in cells; host or cells: Molt-4
Experimental: as §2, §3, §4, §5, §6

MV-4-11 = test: Tumor cell proliferation inhibition (CellTiter-Meiluncell Luminescent Cell Viability Assay); type: cell-based; details: Homo sapiens, 96 hours, Table I-13, CDK2 inhibitors
Method in brief: as §1

JEKO-1 = test: as above; type: cell-based; details: Homo sapiens, 96 hours, Table I-13, CDK2 inhibitors
Method in brief: as §1

CDK2 = biological target: T4, CDK2 (Homo sapiens, UniProt P24941); test: Western blot, target protein degradation in hPBMC Cell; type: cell-based; details: treated at 50 nM and 500 nM, 24 hours
T4 construct: the expression of target proteins in cells; endogenous in cells; host or cells: hPBMC
Experimental: as §2, §3, §4, §5
DC50 values can be calculated using ImageJ software to measure grayscale values of Western blot bands from drug-treated samples. The concentration-response curve is fitted to estimate the drug concentration corresponding to half the grayscale value.
Target protein remaining (%) refers to the percentage of target protein remaining in cells after treatment with protein degrader compounds.
Calculation method for target protein remaining (%): Use ImageJ software to measure grayscale values of Western blot bands from drug (protein degrader)-treated samples. The grayscale value of drug-treated bands is divided by that of internal control protein bands, and the resulting quotient is normalized to obtain the relative percentage of remaining target protein after protein degrader treatment. Target protein degradation rate(%) = 1−target protein remaining(%). [formula]

[2] = Table I-8, SMARCA2/4 inhibitors

T1 sequence (Q96SW2 whole entry): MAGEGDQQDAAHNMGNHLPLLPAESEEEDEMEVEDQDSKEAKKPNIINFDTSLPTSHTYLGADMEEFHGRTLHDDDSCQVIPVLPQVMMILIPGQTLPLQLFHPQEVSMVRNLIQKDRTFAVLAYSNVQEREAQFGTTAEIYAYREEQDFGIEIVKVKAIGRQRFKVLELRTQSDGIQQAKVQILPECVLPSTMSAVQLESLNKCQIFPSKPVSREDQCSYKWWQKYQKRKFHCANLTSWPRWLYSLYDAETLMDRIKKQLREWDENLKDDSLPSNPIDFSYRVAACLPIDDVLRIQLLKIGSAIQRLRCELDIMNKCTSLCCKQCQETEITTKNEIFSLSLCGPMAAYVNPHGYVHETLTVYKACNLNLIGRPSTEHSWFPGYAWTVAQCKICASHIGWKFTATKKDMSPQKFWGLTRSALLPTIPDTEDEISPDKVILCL
T3 sequence (P51531 whole entry): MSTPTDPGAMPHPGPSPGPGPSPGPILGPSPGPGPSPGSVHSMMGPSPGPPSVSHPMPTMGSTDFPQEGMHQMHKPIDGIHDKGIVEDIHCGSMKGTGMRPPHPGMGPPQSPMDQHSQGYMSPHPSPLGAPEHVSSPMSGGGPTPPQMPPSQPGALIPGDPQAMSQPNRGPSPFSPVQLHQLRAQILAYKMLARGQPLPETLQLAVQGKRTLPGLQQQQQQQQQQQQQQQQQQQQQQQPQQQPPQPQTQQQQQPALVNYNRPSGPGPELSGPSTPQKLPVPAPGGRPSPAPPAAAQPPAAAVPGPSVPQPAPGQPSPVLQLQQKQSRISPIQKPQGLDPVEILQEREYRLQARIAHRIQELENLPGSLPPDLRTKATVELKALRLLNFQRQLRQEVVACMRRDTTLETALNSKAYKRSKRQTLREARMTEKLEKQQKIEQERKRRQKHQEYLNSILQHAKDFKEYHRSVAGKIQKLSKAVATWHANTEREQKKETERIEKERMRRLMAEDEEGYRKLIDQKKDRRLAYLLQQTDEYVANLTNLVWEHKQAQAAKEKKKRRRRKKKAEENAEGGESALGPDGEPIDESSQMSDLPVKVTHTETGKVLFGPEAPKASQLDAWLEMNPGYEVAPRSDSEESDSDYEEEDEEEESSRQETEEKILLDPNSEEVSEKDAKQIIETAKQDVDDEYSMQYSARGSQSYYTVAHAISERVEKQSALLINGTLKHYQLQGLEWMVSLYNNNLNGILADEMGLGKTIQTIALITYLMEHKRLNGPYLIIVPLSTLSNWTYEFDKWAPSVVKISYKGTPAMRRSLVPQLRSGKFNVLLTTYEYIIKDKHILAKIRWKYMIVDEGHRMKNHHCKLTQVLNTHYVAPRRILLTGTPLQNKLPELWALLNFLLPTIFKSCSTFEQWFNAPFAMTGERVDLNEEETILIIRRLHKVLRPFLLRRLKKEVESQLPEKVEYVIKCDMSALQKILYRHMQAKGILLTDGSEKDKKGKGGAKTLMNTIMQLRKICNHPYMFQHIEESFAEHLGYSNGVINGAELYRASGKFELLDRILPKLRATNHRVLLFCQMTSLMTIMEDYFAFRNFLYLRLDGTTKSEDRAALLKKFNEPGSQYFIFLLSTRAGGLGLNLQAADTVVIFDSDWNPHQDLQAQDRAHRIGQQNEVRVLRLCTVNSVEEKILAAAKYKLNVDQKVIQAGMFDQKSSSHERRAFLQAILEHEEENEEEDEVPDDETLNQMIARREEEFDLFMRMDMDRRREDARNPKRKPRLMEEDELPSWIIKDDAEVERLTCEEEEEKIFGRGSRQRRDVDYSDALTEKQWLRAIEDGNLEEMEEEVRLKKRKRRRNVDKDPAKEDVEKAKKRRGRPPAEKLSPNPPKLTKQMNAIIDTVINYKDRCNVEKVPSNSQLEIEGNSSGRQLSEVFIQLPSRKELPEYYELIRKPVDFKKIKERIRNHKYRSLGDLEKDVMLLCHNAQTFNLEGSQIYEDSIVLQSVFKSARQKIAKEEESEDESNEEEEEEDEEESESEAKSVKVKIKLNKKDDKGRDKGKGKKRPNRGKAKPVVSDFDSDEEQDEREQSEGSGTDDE
T2 sequence (P51532 whole entry): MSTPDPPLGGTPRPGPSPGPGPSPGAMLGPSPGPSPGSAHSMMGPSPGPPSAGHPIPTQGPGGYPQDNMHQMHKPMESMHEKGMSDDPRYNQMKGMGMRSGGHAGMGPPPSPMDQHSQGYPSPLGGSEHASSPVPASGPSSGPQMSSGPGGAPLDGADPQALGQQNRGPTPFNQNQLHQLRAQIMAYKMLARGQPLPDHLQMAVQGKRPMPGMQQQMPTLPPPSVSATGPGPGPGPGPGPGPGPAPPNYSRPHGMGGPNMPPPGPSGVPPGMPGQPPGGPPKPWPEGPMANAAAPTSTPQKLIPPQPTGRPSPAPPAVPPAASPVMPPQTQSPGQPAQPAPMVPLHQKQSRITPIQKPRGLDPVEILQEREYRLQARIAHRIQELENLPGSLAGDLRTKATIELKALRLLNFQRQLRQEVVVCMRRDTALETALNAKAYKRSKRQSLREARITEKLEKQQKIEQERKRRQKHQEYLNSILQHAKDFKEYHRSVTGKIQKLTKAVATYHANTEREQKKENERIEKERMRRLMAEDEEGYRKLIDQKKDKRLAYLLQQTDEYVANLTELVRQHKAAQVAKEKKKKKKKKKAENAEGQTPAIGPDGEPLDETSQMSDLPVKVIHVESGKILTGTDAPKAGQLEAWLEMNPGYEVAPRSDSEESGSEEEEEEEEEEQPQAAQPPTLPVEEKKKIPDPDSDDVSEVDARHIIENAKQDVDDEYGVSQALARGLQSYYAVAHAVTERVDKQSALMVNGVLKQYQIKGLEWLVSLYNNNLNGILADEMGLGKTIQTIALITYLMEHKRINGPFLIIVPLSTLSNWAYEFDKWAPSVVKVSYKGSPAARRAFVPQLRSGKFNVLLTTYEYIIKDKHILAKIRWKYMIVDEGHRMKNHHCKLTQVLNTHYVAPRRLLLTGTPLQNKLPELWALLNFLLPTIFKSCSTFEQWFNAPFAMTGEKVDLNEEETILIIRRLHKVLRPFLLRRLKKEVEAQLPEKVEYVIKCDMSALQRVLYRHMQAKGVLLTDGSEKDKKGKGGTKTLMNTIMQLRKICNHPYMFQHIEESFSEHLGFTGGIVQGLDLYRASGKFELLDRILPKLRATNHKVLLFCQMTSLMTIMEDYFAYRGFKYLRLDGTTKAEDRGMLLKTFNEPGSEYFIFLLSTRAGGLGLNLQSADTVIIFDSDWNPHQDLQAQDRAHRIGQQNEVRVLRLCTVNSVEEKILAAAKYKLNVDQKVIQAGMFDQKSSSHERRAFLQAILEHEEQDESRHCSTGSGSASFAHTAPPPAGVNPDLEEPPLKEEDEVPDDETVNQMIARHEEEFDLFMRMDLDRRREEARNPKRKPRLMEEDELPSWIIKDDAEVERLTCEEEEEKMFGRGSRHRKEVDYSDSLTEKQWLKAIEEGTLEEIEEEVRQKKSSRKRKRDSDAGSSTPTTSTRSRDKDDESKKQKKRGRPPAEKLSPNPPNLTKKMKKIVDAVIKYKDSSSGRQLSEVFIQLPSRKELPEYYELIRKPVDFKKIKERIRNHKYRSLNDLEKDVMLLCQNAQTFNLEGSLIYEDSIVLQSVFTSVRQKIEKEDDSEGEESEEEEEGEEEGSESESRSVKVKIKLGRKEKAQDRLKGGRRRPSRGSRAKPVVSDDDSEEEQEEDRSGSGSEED

COc1cc2nn(C3CCN(Cc4cccc5c4CN(C4CCC(=O)NC4=O)C5=S)CC3)cc2cc1NC(=O)c1cccc(C(F)(F)F)n1 (stereo not shown) [GT-04950, N-(2-(1-((2-(2,6-dioxopiperidin-3-yl)-1-thioxoisoindolin-4-yl)methyl)piperidin-4-yl)-6-methoxy-2H-indazol-5-yl)-6-(trifluoromethyl)picolinamide]
IC50 (Jurkat): 500 to 1000 nM | IC50 (MM.1S; Table I-5, designed based on the IRAK4 inhibitors, read-out: Inhibitory activity (IC50, nM) MM.1S): 100 to 500 nM | inhibition at 0.5 µM [1]: 40 to 53% | inhibition at 2 µM [1]: 60 to 80%

Nc1nnc(-c2ccccc2O)cc1N1CCN(Cc2ccc3c(c2)C(=S)N(C2CCC(=O)NC2=O)C3)CC1 (stereo not shown) [GT-08787, 3-(6-((4-(3-amino-6-(2-hydroxyphenyl)pyridazin-4-yl)piperazin-1-yl)methyl)-1-thioxoisoindolin-2-yl)piperidine-2,6-dione]
inhibition at 0.01 µM (MM.1S; [2]): 30 to 40% | inhibition at 0.5 µM (MM.1S; [2]): 40 to 50% | inhibition at 0.5 µM [1]: 60 to 80% | inhibition at 2 µM [1]: 80 to 100% | Degradation of substrate protein BRG1 (BRG1): A (0% ≤ substrate protein remaining % ≤ 80%) | Degradation of substrate protein BRM (BRM): A (0% ≤ substrate protein remaining % ≤ 80%)

Cc1ccsc1C(=O)n1nc(Nc2ccc(S(=O)(=O)N3CCN(Cc4ccc5c(c4)C(=S)N(C4CCC(=O)NC4=O)C5)CC3)cc2)nc1N (stereo not shown) [GT-08798, 3-(6-((4-((4-((5-amino-1-(3-methylthiophene-2-carbonyl)-1H-1,2,4-triazol-3-yl)amino)phenyl)sulfony 1)piperazin-1-yl)methyl)-1-thioxoisoindolin-2-yl)piperidine-2,6-dione]
inhibition at 0.01 µM (MV-4-11; MV4-11, 10 nM, read-out: Inhibition Rate at 10 nM (%)): 20 to 30% | inhibition at 0.5 µM (MV-4-11; MV4-11, 500 nM, read-out: Inhibition Rate at 500 nM (%)): 60 to 70% | inhibition at 0.01 µM (JEKO-1; 10 nM, read-out: Inhibition Rate at 10 nM (%)): 10 to 20% | inhibition at 0.5 µM (JEKO-1; 500 nM, read-out: Inhibition Rate at 500 nM (%)): 60 to 70% | inhibition at 0.01 µM (MM.1S; Table I-13, CDK2 inhibitors): 10 to 20% | inhibition at 0.5 µM (MM.1S; Table I-13, CDK2 inhibitors): 50 to 60% | inhibition at 0.5 µM [1]: 53 to 60% | inhibition at 2 µM [1]: 60 to 80% | Degradation of substrate protein CDK2 (CDK2): Yes
